From US20080234368A9, “Therapeutic compositions and methods of use” (Trustees of Dartmouth College, priority 1998, published 2008) come the findings set out here.

The subject of one test is rat hippocampal neurons. In words: Protection of hippocampal neurons from β-amyloid induced cell death, MTT assay. Type of test: cell-based. As to the method:
For the following examples, stock solutions of CDDO (0.01 M) were made in DMSO and aliquots frozen at −20° C. Serial dilutions were made in DMSO before addition to cell culture media. Primary rat microglia and hippocampal neurons were isolated and cultured as described by Flaris et al., 1993 and Ren and Flanders, 1996.
The roles of inflammatory mediators, as well as aberrant programs for cell survival and apoptosis, in the genesis of cancer and Alzheimer's Disease are now undergoing serious investigation (McGeer and McGeer, 1995; Merrill and Benveniste, 1996; Akama et al., 1998). CDDO was tested in this example as a suppressor of de novo formation of iNOS in cultured microglia (the resident macrophages of the brain), as well as its ability to protect cultured hippocampal neurons from cell death induced by β-amyloid. […] Thus, LPS (5 ng/ml) induced iNOS in primary microglial cultures and caused a 27-fold increase in production of NO within 18 h. Concomitant treatment of these cultures with CDDO at either 10^−6 or 10 ^−7 M inhibited this induction by 73% and 52%, respectively. We have also explored the possibility that CDDO can protect cultured hippocampal neurons from cell death induced by the peptide β-amyloid, since NO has been implicated (Akama et al., 1998) in the neurotoxic actions of this peptide which is central to the pathogenesis of Alzheimer's disease (Selkoe, 1997). Hippocampal neurons were isolated and cultured from 16 day rat embryos and then treated with CDDO for 24 h before adding the β-amyloid peptide fragment, amino acids 25-35, at a final concentration of 10 μM. This dosing with β-amyloid alone caused death of more than half of the neurons in the culture within 24 h, as measured by MTT assay.
(In general: Tetrazolium dyes change colour on reduction, which living cells bring about.)

For test [1], the system named is NO production in primary macrophages. The test is described as follows: Suppression of NO production in primary macrophages (FIG. 14C). Type of test: cell-based, mouse. The settings on record: levels as low as 10^−9 M; IFN-γ 10 ng/ml, 48 h. As to the method: FIG. 14(A) illustrates Western blots; primary mouse macrophages; IFN-γ, 10 ng/ml; LPS, 2 ng/ml were added to cultures together with triterpenoids or dexamethasone (concentrations shown as […]); cells were harvested at 12 h. FIG. 14(B) illustrates Northern blots, RAW 264.7 macrophage-like cell line. IFN-γ, 10 ng/ml; LPS, 1 ng/ml; TNF-α, 10 ng/ml, were added to cultures together with CDDO or dexamethasone. RNA prepared after 12 h; GAPDH used as a loading control. FIG. 14(C) illustrates suppression of production of NO and PGEF in primary macrophages. For NO studies, cells were treated with IFN-γ, 10 ng/ml, together with CDDO (M), dexamethasone (O), TP-82 (□), or oleanolic acid (A). After 48 h, supernatants were analyzed for NO by the Griess reaction. For PGEF studies, cells were treated with IFN-γ, 5 ng/ml, and LPS, 5 ng/ml, together with the same set of inhibitors. After 48 h, PGE was measured in supernatants by immunoassay. Control values (no inhibition) for NO and PGE2 were 4.7 nmol/[…] and 2.2 ng/ml/2×10^5 cells, respectively. FIGS. (14D) and (14E) illustrate (human colon myofibroblasts) ^18Co cells grown in MEM/10% FBS; other methods are the same as reported above for macrophages. FIG. 14(D) illustrates Northern blots showing dose-response for suppression of COX-2 mRNA after induction with IL-1β (30 pg/ml). CDDO was added together with IL-1. […]

Test [2] concerns NO production in primary mouse macrophages. In words: NO production induced by LPS and IFN-γ in primary mouse macrophages (FIG. 7). It is filed as cell-based.
The test system of test [3] is 21-MT-2 ER negative breast carcinoma cells. The test is described as follows: Inhibition of cell proliferation (3H-thymidine incorporation). It is filed as cell-based, human. The conditions noted are these: 3 or 4 days, 3H-thymidine 2 h. As for the experimental part: (§1) All cells were obtained from ATCC, except as noted. They were grown under standard conditions in either DMEM, DMEM/F 12, or RPMI 1640 media plus 5-10% FBS. CDDO, over the dose range 10^−6 to 10^−10 M, was added to cultures at the time of seeding. Three or 4 days later, cells were treated with ^3H-thymidine for 2 h (12 h in the case of leukemia cells), and then incorporation was measured. “ER” means estrogen receptor.
A general note: Uptake of a labelled nucleoside into DNA is a usual measure of proliferation.

In test [4] the test system is AML193 acute myelocytic leukemia cells. The test is described as above. Type of test: cell-based, human. The settings on record: 3 or 4 days, 3H-thymidine 12 h. As to the method:
as §1

Test [5] has as its system THP-1 monocytic leukemia cells. Described as above. Type of test: cell-based, human. The settings on record: 3 or 4 days, 3H-thymidine 12 h. As to the method: as §1
For a further test, the target named is T1, COX-2 enzymatic activity (Mus musculus, UniProt Q05769).
T1 construct: added to RAW cells in which synthesis of these two enzymes has already been induced; endogenous in cells; host or cells: RAW 264.7 mouse macrophage-like cells, enzyme synthesis pre-induced
T1 sequence (Q05769 18-604): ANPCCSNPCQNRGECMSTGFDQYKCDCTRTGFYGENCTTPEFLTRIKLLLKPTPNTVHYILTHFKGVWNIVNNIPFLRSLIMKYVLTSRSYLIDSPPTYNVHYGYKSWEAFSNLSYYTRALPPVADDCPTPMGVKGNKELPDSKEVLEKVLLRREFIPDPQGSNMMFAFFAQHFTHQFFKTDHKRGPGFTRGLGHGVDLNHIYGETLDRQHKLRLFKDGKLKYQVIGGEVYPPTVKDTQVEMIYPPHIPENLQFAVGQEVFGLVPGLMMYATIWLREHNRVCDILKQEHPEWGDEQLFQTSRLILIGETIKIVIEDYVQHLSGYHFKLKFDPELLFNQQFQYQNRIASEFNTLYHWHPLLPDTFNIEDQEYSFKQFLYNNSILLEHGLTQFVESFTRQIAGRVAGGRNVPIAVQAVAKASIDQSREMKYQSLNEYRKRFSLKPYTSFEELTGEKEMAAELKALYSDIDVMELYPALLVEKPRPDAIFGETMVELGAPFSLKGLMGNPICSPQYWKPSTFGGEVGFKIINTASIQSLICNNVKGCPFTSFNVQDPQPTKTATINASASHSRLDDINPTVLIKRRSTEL
In words: Prostaglandin production in RAW cells with enzyme synthesis already induced. It is filed as cell-based. The settings on record: added after enzyme synthesis induced; data not shown. From the text:
These effects of CDDO have been seen in primary mouse macrophages, a mouse macrophage-like tumor cell line (RAW 264.7), and in non-neoplastic human colon fibroblasts. […] Neither iNOS nor COX-2 expression can be detected in these cells until they are stimulated by an inflammatory mediator such as IFN-γ, or LPS. […] The above effects on INOS and COX-2 are also reflected in the cumulative production of their respective enzyme products, NO and PGE2, as measured in primary macrophages (FIG. 14C). […] Likewise, the actions of CDDO are not blocked by the glucocorticoid antagonist, RU-486, which is known to bind to the glucocorticoid receptor (data not shown). In these regards, CDDO is identical to the other oleanolic acid derivatives previously studied (Suh et al., 1998).

Test [6] deals with NRP-152 non-malignant prostate epithelium cells. In words: Suppression of thymidine incorporation, dose-response (FIG. 13). Type of test: cell-based, rat. The settings on record: NRP-152, 72 h; oleanolic acid statement at concentrations of 1 μM or less. As for the experimental part:
Inhibitors of cell proliferation are known to be useful chemopreventive and chemotherapeutic agents. CDDO was tested against a wide variety of cells derived from highly aggressive leukemias and carcinomas, as well as from non-neoplastic tissues. NRP-152 cells were grown as described in Danielpour et al., 1994. MCF-7 cells were grown in phenol red-free RPMI 1640/10% charcoal-stripped FBS with added 17-β-estradiol (10 μM). Triterpenoids were added at the time of plating, and 72 h later ^3H-thymidine (1 μCi/well) was added for the final 2 h of incubation. Incorporation of thymidine was measured after cells were precipitated with TCA (10%), washed, and solubilized. The symbols used in FIG. 13 are CDDO, ▪; TP-82, ◯; and oleanolic acid; ●.

Usually IC50 stands for the point on the concentration scale where inhibition reaches its midpoint. Lower therefore signals greater potency in that assay.

As to `CC1(C)CC[C@]2(C(=O)O)CC[C@]3(C)[C@H](C(=O)C=C4[C@@]5(C)C=C(C#N)C(=O)C(C)(C)[C@@H]5CC[C@]43C)[C@@H]2C1` [Compound 6, 2-cyano-3,12-dioxoolean-1,9-dien-28-oic acid], the “protection against β-amyloid induced cell death” value in the test on rat hippocampal neurons (CDDO 10^−7 M, 24 h pretreatment, β-amyloid 25-35 10 μM, 24 h) was “totally prevented this cell death”; in the test with rat hippocampal neurons (CDDO 10^−8 M, 24 h pretreatment, β-amyloid 25-35 10 μM, 24 h), “totally prevented this cell death”; with rat hippocampal neurons (doses as low as 10^−10 M), “some protective activity”. The “inhibition of cumulative NO production” value in test [1] is given as “Significant inhibition”. The “activity on LPS and IFN-γ induced NO production compared with dexamethasone (FIG. 7)” value in test [2] is on record as “favorable to that of dexamethasone”. In addition, the IC50 is 300 nM in test [3], 400 nM in test [4] and 50 nM in test [5]. Further, the “immediate effect on prostaglandin production (direct inhibition of COX-2)” value at COX-2 enzymatic activity is given as “no immediate effect”. For the same molecule, the suppressing thymidine incorporation result in test [6] is listed as “highly active in the nanomolar range”.
